Source: patent US6765014B1, “1-Acyl-7-nitroindoline derivatives, their preparation and their use as photocleavable precursors” (Medical Research Council, priority 1999, dated 2004)

How the values were obtained:
[1] = Quantum yield estimation by laser flash irradiation (347 nm); format: physicochemical
Protocol: Quantum yield estimation for 10. A solution of 1-(2-nitrophenylethyl) phosphate and 10 (each 0.50 mM) together with dithiothreitol (5 mM) was prepared in 25 mM ammonium phosphate, pH 7.0. Aliquots of the solution ([…]) in a 1-mm path length cell were each subjected to one 50-ns flash from a frequency-doubled ruby laser, that delivered 347 nm light with an average energy of 90 mJ (range 83-104 mJ). The combined irradiated solutions were analyzed by reverse-phase HPLC (mobile phase 25 mM Na phosphate, pH 6.0+40% MeOH, 1.5 ml/min). Retention times were 4.2 and 7.2 min for 10 and 1-(2-nitrophenylethyl) phosphate respectively. Quantification was based on peak heights compared to those of the unphotolyzed control. Extinction coefficients at 347 nm used to calculate the relative quantum yields were 2720 and 510 M^−1cm^−1 for 10 and 1-(2-nitrophenylethyl) phosphate respectively. Photolysis and product analysis for compounds 10 and 18.
The product quantum yield (Qp) for photolysis of the glutamate derivative 10 was determined by laser flash irradiation (347 nm) of a solution containing 10 and 1-(2-nitrophenyl)ethyl phosphate (16) (both 0.5 mM in pH 7 phosphate buffer). Conversions by a single flash (˜90 mJ) were 9.7 and 23% respectively (reverse-phase HPLC), leading to Qp=0.043 by comparison with the known value (16) (0.54) for the caged phosphate and after correction for the different extinction coefficients at the irradiation wavelength. Although the value of Qp is low, the relatively high extinction coefficient at ˜350 nm (˜2700 M^−1cm^−1) compared to that of “classical” 2-nitrobenzyl-type caged compounds (˜600 M^−1cm^−1) enables similar photolytic efficiency to be achieved.

[2] = literature value (16); cited from earlier work
[3] = Flash photolysis with time-resolved UV-VIS absorption spectroscopy, proton release (pH indicator); format: physicochemical; conditions: 320 nm laser, 1 ms pulse, 20° C.
Description: (§1) Formation of different products in different solvents requires a change of mechanism and there is some precedent for photoreactivity of nitroaryl compounds in aqueous solution that was not observed in organic solvents. […] Second, we have investigated the kinetics of product formation, specifically of the released proton and carboxylate. […] The latter process may correspond with the slow phase of proton release described above. An overlapping band on the high-frequency side of the main 1553 cm^−1 band makes definitive interpretation of the signals uncertain.

[4] = Analytical photolysis of 8 in organic and aqueous solvents; format: physicochemical; conditions: CH2Cl2-dioxane-H2O mixture vs aqueous solution, equimolar solutions
Protocol: Analytical photolysis of 8 in organic and aqueous solvents. Solutions (˜[…]) of 8 in either CH2Cl2-dioxane-H2O (2:3:0.05) or 25 mM Na phosphate, pH 7.0 were irradiated in air for times between 0 and 16 min in a 1-cm path length cell with light from a 100 W xenon arc lamp, filtered through a Hoya 340 filter.
(§2) Upon comparative photolysis of the 1-glutaryl derivatives 8 and 11 in aqueous solutions at pH 7 and without excluding atmospheric oxygen, the bromo compound 11 was indeed converted ˜2.5-fold less efficiently than 8. Photolysis of 8 proceeded cleanly, as shown by an isosbestic point at 365 nm in spectra of a solution photolyzed for increasing times to at least 65% conversion, but the photoproduct of the protecting group was not the 7-nitroindoline 12 (λmax 450 nm) expected from the previous report (6a). […] Further confirmation of the presence of a nitroso group was that treatment of 13, R=CH2CO2Me) with a thiol readily abolished the 412 nm chromophore, presumably by conversion to the corresponding hydroxylamine (11, 12). […] In control experiments, photolysis of the glutaryl compound 8 in CH2Cl2-dioxane-H2O (2:3:0.05) cleanly gave the expected (6a) nitroindoline 12.

[5] = Relative photolysis efficiencies of 8 and 11 (xenon arc lamp, HPLC); format: physicochemical; conditions: after 2 min irradiation, 0.5 mM each, 25 mM Na phosphate pH 7.0, 100 W xenon arc lamp
Protocol: Relative photolysis efficiencies of 8 and 11. A solution containing both 8 and 11 (each 0.5 mM) in 25 mM Na phosphate, pH 7.0 was irradiated in a 1-mm path length cell using light from a 100 W xenon arc lamp which passed through Hoya 340 and Schott WG 305 filters before. illuminating the cell. The extent of photolysis of each compound was determined by reverse-phase HPLC analysis (mobile phase 10 mM Na phosphate, pH 6.0+50% MeOH, 1.5 mL/min). Retention times for 8 and 11 were 3.8 and 7.8 min respectively. After 2 min irradiation, the extents of conversion for compounds 8 and 11 were 40 and 16% respectively.
as §2

[6] = Water solubility (stated in words); format: physicochemical
[7] = Hydrolytic stability of 1-acyl-7-nitroindolines (reverse-phase HPLC); format: physicochemical; conditions: 62.5 mM Na phosphate, pH 12.01, 30° C.
Protocol: The extent of hydrolysis was determined by reverse-phase HPLC analysis (mobile phase 25 mM Na phosphate, pH 6.0+10% MeOH, 1.5 ml/min). […] Quantification was based on peak heights compared to those of unhydrolysed controls (to). First-order rate constants for hydrolysis were obtained from single exponential fits to the data.
In addition to the release rate of the bioeffector species following flash irradiation, important properties of any caged compound include stability in aqueous solution and its extent of photolysis upon a single flash irradiation.
In this context, hydrolytic stability refers to the amide bond. […] The use of the free acids avoided analytical complications from the much faster cleavage of the ester group.

[8] = Flash photolysis with time-resolved IR measurements, carboxylate formation; format: physicochemical; conditions: 1557 cm^−1, 351 nm laser, 9 ns pulse, 25° C., pH 7
Description: as §1

glutamate ion channels = test: Whole-cell patch clamp of cultured rat cerebellar granule neurones, with and without flash photolysis; format: cell-based; conditions: with and without iontophoretic application of L-glutamate
Protocol: The caged L-glutamate reagent 10 was tested in primary cultures of rat cerebellar granule neurones for its pharmacological actions and ability to effect photolytic activation of glutamate ion channels. All electrophysiological experiments were performed in Mg^2+-free mammalian Ringer's solution containing 100 μM glycine. Cells were voltage clamped at −65 mV with whole-cell patch clamp (17) and the glutamate sensitivity was established by responses to 20 ms pulses of L-glutamate, applied at a frequency of 0.25 Hz by iontophoresis from a 1-μm tipped glass pipette. […] The latter most likely arises from glutamate diffusion away from the photolyzed region. The time course of the initial decline may represent desensitization of non-NMDA glutamate channels.
During the slow decline there was a clear increase in the low frequency noise of the glutamate-activated current compared to baseline, consistent with gating of glutamate-activated ion channels.

[9] = pH 7,21° C.; cited from earlier work

Compound: CC(OP(=O)(O)O)c1ccccc1[N+](=O)[O-] (stereo not drawn) [1-(2-nitrophenylethyl) phosphate, 1-(2-Nitrophenylethyl) phosphate, reference compound]
- Conversion by a single flash ([1]; 347 nm laser flash, ~90 mJ, 0.5 mM, pH 7 phosphate buffer): 23%
- Extinction coefficient at 347 nm ([1]; used to calculate relative quantum yields): 510 M⁻¹ cm⁻¹
- Product quantum yield, known value [2]: 0.54

Compound: COC(=O)Cc1cc2c(c([N+](=O)[O-])c1)N(C(=O)CCCC(=O)O)CC2 [Compound 8, Methyl 1-glutaryl-7-nitroindoline-5-acetate]
- Proton release, rate of smaller component ([3]; pH 7): ~9 s⁻¹
- Proton release, time course of major component ([3]; pH 7): complete within the laser pulse
- Proton release, major component share of signal ([3]; pH 7, Bromothymol Blue): ~85%
- Fold more efficient photolysis in organic solvent than in water [4]: at least 2 fold
- Extent of conversion (photolysis) [5]: 40%

Compound: COC(=O)Cc1cc2c(c([N+](=O)[O-])c1)N(C(=O)CCCCOP(=O)(O)O)CC2 [Compound 9]
- Water solubility [6]: highly water-soluble
- Half-times for hydrolysis (amide hydrolysis) [7]: 29 h
- Carboxylate formation, exponential rate of major component [8]: ~2700 s⁻¹
- Carboxylate formation, exponential rate of minor component [8]: ~10 s⁻¹
- Carboxylate formation, major component share of absorption increase [8]: ~80%
- Effect of the caged compound before, during and after photolysis (glutamate ion channels): no effect

Compound: N-carboxyglutamate
- Decarboxylation rate k [9]: ~150 s⁻¹
